Test results published in ChEMBL document CHEMBL3997763 (Medchemcomm, 2016).
The source made the active and inactive calls. The rule behind the calls is not given here.

Tests used:
[1] = molecular target: T1, 3-hydroxy-3-methylglutaryl-coenzyme A reductase (Homo sapiens) (UniProt P04035); experiment: Inhibition of human HMG-CoA reductase catalytic domain at 5 uM using HMG-CoA as substrate in presence of NADPH by colorimetric method relative to control
T1 sequence (whole entry): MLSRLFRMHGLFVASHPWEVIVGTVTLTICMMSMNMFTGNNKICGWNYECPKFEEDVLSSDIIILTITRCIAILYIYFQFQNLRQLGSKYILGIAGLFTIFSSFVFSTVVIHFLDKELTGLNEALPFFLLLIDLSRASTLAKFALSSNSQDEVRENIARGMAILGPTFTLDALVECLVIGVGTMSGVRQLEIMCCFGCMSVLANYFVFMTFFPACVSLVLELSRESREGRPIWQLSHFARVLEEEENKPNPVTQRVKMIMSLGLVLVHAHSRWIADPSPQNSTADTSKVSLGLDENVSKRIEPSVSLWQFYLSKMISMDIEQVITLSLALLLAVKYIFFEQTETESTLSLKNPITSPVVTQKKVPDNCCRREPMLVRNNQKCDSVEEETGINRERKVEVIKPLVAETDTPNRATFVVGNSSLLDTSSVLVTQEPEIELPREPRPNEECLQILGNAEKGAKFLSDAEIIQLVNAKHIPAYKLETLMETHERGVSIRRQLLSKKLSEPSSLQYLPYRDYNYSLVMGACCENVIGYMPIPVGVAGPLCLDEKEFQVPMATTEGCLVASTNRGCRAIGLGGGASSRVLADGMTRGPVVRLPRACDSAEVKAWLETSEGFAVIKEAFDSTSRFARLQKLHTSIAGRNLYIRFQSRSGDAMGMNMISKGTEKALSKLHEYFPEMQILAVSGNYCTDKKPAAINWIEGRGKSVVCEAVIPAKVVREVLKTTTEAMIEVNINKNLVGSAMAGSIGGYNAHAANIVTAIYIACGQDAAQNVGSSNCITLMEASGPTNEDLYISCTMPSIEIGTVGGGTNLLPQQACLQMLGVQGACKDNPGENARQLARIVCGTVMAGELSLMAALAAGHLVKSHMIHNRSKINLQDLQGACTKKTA

[2] = molecular target: T1, 3-hydroxy-3-methylglutaryl-coenzyme A reductase (Homo sapiens); experiment: Inhibition of human HMG-CoA reductase catalytic domain at 100 uM using HMG-CoA as substrate in presence of NADPH by colorimetric method relative to control
Rattus norvegicus [3] = experiment: Antihyperlipidemic activity in triton WR-1339 induced Charles Foster rat hyperlipidemia model assessed as increase in HDL-C level in serum at 50 mg/kg, po administered simultaneously with triton WR-1339 after 18 hrs by enzymatic method relative to control; assay type: functional
Rattus norvegicus [4] = experiment: Antihyperlipidemic activity in triton WR-1339 induced Charles Foster rat hyperlipidemia model assessed as inhibition of triglyceride level in serum at 50 mg/kg, po administered simultaneously with triton WR-1339 after 18 hrs by enzymatic method relative to control; assay type: functional
Rattus norvegicus [5] = experiment: Antihyperlipidemic activity in triton WR-1339 induced Charles Foster rat hyperlipidemia model assessed as increase in HDL-C level in serum at 100 mg/kg, po administered simultaneously with triton WR-1339 after 18 hrs by enzymatic method relative to control; assay type: functional
Rattus norvegicus [6] = experiment: Antihyperlipidemic activity in triton WR-1339 induced Charles Foster rat hyperlipidemia model assessed as inhibition of phospholipid level in serum at 150 mg/kg, po administered simultaneously with triton WR-1339 after 18 hrs by enzymatic method relative to control; assay type: functional
Rattus norvegicus [7] = experiment: Antihyperlipidemic activity in HFD-induced Charles Foster rat chronic hyperlipidemia model assessed as body weight at 100 mg/kg administered via oral gavage for 30 days simultaneously with high fat diet (reference value: 263.52 +/- 21.56 g); assay type: functional
Rattus norvegicus [8] = experiment: Hypolipidemic activity in HFD-induced Charles Foster rat chronic hyperlipidemia model assessed as reduction in serum triglyceride level at 100 mg/kg administered via oral gavage for 30 days simultaneously with high fat diet by enzymatic method relative to HFD treated vehicle; assay type: functional; conditions: 720 h
Rattus norvegicus [9] = experiment: Hypolipidemic activity in HFD-induced Charles Foster rat chronic hyperlipidemia model assessed as reduction in serum ALT level at 100 mg/kg administered via oral gavage for 30 days simultaneously with high fat diet by colorimetric method relative to HFD treated vehicle; assay type: functional; conditions: 720 h
Rattus norvegicus [10] = experiment: Hypolipidemic activity in HFD-induced Charles Foster rat chronic hyperlipidemia model assessed as reduction in liver triglyceride level at 100 mg/kg administered via oral gavage for 30 days simultaneously with high fat diet by enzymatic method relative to HFD treated vehicle; assay type: functional; conditions: 720 h
Rattus norvegicus [11] = experiment: Hypolipidemic activity in HFD-induced Charles Foster rat assessed as reduction in serum VLDL-TC at 100 mg/kg administered as single dose via oral gavage for 30 days simultaneously with high fat diet; assay type: functional, organism-based
Rattus norvegicus [12] = experiment: Hypolipidemic activity in HFD-induced Charles Foster rat assessed as reduction in serum VLDL-TG at 100 mg/kg administered as single dose via oral gavage for 30 days simultaneously with high fat diet; assay type: functional, organism-based
Rattus norvegicus [13] = experiment: Hypolipidemic activity in HFD-induced Charles Foster rat assessed as reduction in serum LDL-TG at 100 mg/kg administered as single dose via oral gavage for 30 days simultaneously with high fat diet; assay type: functional, organism-based
Rattus norvegicus [14] = experiment: Hypolipidemic activity in HFD-induced Charles Foster rat assessed as increase in serum HDL-TC at 100 mg/kg administered as single dose via oral gavage for 30 days simultaneously with high fat diet; assay type: functional, organism-based
Rattus norvegicus [15] = experiment: Hypolipidemic activity in HFD-induced Charles Foster rat assessed as increase in human I125-LDL binding to rat liver plasma membrane at 100 mg/kg administered as single dose via oral gavage for 30 days simultaneously with high fat diet by minigamma counting; assay type: functional, organism-based
[16] = Tmax in Sprague-Dawley rat at 100 mg/kg, po administered as single dose by LC-MS/MS analysis; assay type: ADME, organism-based; conditions: in vivo
[17] = AUC (0 to infinity) in Sprague-Dawley rat at 100 mg/kg, po administered as single dose by LC-MS/MS analysis; assay type: ADME, organism-based; parameters: dose 100 mg/kg, time infinity, route oral; conditions: in vivo
[18] = Apparent oral clearance in Sprague-Dawley rat at 100 mg/kg administered as single dose by LC-MS/MS analysis; assay type: ADME, organism-based; conditions: in vivo
[19] = Apparent oral volume of distribution in Sprague-Dawley rat at 100 mg/kg administered as single dose by LC-MS/MS analysis; assay type: ADME, organism-based; conditions: in vivo
Rattus norvegicus [20] = experiment: Antihyperlipidemic activity in po dosed triton WR-1339 induced Charles Foster rat hyperlipidemia model assessed as inhibition of phospholipid level in serum administered simultaneously with triton WR-1339 after 18 hrs by enzymatic method relative to control; assay type: functional, organism-based
Rattus norvegicus [21] = experiment: Antihyperlipidemic activity in po dosed triton WR-1339 induced Charles Foster rat hyperlipidemia model assessed as inhibition of triglyceride level in serum administered simultaneously with triton WR-1339 after 18 hrs by enzymatic method relative to control; assay type: functional, organism-based
Rattus norvegicus [22] = experiment: Hypolipidemic activity in HFD-induced Charles Foster rat assessed as increase in lipolytic activity of LPL in liver at 100 mg/kg administered as single dose via oral gavage for 30 days simultaneously with high fat diet; assay type: functional, organism-based
Liver = experiment: Intrinsic clearance in Sprague-Dawley rat liver microsomes at 10 uM in absence of NADPH after 5 to 90 mins by LC-MS/MS analysis; assay type: ADME, microsome
Albumin = Albumin (Bos taurus, UniProt P02769); experiment: Binding affinity to bovine serum albumin by absorption spectroscopic method; assay type: ADME; conditions: cattle, isolated protein
Chain of Albumin (P02769 whole entry): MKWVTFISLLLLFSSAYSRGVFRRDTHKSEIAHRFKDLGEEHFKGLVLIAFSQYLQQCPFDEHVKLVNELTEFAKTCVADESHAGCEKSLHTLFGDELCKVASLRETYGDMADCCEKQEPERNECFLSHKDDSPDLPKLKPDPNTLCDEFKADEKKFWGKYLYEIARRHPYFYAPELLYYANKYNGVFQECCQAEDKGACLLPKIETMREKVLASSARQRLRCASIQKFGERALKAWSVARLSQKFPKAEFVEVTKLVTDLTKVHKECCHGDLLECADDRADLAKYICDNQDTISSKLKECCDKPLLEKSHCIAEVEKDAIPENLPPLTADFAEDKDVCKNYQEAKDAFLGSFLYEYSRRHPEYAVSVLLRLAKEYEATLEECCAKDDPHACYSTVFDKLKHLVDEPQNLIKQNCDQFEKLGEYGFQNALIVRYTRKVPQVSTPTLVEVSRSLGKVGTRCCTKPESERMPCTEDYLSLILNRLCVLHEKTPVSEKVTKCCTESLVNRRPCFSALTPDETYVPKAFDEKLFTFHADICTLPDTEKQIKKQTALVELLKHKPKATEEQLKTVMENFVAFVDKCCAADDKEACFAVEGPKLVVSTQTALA

inhibition [1]: 32%
inhibition [2]: 81%
Tmax [16]: 4 h
AUC(0-inf) [17]: 417 ng·h/mL
CL/F [18]: 241 L/h/kg
Vd/F [19]: 684 L/kg
CLH (Liver): 5.8 µL/min/mg
Activity (Albumin): Active
Compound: COc1ccc(-c2cc3cc(C(c4c[nH]c5ccccc45)c4c[nH]c5ccccc45)cc(C(C)(C)C)c3oc2=O)cc1OC
Activity (Rattus norvegicus [3]): 15%
inhibition in vivo at 50 mg/kg (Rattus norvegicus [4]): 20%
Activity (Rattus norvegicus [5]): 23%
inhibition in vivo at 150 mg/kg (Rattus norvegicus [6]): 35%
Activity (Rattus norvegicus [7]): 228.19 g
inhibition in vivo at 100 mg/kg (Rattus norvegicus [8]): 26%
inhibition in vivo at 100 mg/kg (Rattus norvegicus [9]): 26%
inhibition in vivo at 100 mg/kg (Rattus norvegicus [10]): 29%
Activity (Rattus norvegicus [11]): Active
Activity (Rattus norvegicus [12]): Active
Activity (Rattus norvegicus [13]): Active
Activity (Rattus norvegicus [14]): Active
Activity (Rattus norvegicus [15]): Active
inhibition (Rattus norvegicus [20]): Dose-dependent effect
inhibition (Rattus norvegicus [21]): Dose-dependent effect
Activity (Rattus norvegicus [22]): Active
